pKi: −log10 of the molar value. Values joined by “and” are separate entries in the source; they are usually repeats but may differ in a detail not shown here. Equal entries are not always repeated. Structures can show the parent of a compound that is named as a salt.
Key:
Nischarin = Nischarin (Rattus norvegicus, UniProt Q4G017)
[1] = molecular target: 5-hydroxytryptamine receptor 4 (Cavia porcellus, UniProt O70528)
[2] = molecular target: Beta-2 adrenergic receptor (Rattus norvegicus, UniProt P10608)
Chain of Beta-2 adrenergic receptor (P10608 whole entry): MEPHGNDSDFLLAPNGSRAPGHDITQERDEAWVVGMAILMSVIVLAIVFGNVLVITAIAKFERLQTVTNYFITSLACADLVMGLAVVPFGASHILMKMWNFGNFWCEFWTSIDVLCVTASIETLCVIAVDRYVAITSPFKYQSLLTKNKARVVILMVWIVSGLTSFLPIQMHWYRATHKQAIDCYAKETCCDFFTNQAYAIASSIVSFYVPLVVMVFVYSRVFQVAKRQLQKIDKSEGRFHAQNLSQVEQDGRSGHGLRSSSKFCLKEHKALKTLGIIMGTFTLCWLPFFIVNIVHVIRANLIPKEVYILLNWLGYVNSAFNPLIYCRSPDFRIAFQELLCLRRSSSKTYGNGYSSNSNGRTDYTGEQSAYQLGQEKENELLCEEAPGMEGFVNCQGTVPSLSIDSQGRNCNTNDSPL

[3] = molecular target: 5-hydroxytryptamine receptor 3A (Rattus norvegicus, UniProt P35563)
[4] = molecular target: T1, Glycine amidinotransferase, mitochondrial (Rattus norvegicus, UniProt P50442)
T1 sequence (P50442 whole entry): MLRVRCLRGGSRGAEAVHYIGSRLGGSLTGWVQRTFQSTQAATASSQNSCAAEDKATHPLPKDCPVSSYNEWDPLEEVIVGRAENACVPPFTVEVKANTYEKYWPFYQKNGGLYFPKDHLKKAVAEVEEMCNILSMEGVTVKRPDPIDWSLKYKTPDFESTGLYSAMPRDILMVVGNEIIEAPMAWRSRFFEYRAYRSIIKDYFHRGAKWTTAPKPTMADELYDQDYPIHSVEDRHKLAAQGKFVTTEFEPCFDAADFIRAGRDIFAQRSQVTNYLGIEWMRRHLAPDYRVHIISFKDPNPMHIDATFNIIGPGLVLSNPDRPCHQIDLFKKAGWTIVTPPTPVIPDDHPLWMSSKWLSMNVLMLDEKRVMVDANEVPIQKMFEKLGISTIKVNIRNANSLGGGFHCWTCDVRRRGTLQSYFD

[5] = molecular target: T2, Glycine receptor subunit alpha-1 (Rattus norvegicus, UniProt P07727)
T2 sequence (P07727 whole entry): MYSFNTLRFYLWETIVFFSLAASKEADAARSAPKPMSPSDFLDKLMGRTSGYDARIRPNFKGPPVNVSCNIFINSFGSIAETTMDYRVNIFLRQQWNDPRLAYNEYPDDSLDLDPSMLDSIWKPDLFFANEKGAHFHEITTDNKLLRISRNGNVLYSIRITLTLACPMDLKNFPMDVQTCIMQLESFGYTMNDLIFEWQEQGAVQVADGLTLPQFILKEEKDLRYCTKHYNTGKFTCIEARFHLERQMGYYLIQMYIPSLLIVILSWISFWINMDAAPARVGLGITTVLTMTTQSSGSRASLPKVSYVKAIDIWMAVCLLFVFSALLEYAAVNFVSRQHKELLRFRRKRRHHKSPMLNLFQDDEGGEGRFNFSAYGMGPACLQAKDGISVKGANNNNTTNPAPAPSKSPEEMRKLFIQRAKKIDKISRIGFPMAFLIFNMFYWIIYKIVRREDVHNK

Adenosine receptor A2a = Adenosine receptor A2a (Rattus norvegicus, UniProt P30543)
Chain of Adenosine receptor A2a (P30543 whole entry): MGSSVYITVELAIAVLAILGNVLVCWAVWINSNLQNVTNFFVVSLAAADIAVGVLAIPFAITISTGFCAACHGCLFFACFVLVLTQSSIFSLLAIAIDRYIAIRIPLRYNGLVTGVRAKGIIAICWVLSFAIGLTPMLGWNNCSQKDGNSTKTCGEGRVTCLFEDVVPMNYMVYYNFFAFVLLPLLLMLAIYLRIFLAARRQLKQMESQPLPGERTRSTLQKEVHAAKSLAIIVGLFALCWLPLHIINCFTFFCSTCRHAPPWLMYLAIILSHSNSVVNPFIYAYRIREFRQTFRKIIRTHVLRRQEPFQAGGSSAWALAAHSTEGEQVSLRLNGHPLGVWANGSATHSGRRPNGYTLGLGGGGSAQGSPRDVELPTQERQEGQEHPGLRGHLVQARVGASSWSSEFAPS

[6] = molecular target: T3, Type-1 angiotensin II receptor (Oryctolagus cuniculus, UniProt P34976)
T3 sequence (P34976 whole entry): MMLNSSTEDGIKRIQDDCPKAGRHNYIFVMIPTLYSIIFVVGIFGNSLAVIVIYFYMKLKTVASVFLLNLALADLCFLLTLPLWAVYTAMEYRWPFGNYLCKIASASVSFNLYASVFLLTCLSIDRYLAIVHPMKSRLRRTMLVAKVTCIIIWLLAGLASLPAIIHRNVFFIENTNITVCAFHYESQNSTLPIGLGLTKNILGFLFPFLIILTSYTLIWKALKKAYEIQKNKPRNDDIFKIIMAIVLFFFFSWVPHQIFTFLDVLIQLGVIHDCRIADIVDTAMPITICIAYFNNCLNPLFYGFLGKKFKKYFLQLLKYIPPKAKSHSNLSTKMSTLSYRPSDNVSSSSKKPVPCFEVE

Glutamate receptor 3 = Glutamate receptor 3 (Rattus norvegicus, UniProt P19492)
Chain of Glutamate receptor 3 (P19492 whole entry): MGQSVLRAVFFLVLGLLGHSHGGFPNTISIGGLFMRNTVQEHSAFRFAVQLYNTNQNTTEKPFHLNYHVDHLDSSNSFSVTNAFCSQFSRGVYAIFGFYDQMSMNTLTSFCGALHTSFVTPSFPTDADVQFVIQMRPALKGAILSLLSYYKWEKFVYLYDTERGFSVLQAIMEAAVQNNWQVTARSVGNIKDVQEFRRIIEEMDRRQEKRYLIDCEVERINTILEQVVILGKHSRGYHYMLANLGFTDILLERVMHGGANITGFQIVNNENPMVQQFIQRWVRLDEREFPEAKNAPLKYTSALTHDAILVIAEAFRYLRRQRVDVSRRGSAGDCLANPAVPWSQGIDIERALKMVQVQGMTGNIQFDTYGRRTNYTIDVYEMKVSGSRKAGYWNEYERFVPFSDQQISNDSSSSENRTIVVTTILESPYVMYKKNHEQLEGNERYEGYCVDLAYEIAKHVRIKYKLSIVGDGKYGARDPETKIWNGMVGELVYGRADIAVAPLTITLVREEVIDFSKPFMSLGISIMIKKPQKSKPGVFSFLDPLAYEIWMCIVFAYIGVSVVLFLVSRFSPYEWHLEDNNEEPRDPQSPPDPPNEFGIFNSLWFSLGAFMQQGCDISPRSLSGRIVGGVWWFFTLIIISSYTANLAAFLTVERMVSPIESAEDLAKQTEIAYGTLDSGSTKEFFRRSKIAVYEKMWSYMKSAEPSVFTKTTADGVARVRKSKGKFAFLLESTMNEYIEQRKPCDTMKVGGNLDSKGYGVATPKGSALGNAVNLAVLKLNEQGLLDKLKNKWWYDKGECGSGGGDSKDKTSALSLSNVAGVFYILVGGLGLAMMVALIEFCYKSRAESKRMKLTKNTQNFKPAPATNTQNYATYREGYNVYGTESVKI

Adenosine receptor A1 = molecular target: T4, Adenosine receptor A1 (Rattus norvegicus, UniProt P25099)
T4 sequence (P25099 whole entry): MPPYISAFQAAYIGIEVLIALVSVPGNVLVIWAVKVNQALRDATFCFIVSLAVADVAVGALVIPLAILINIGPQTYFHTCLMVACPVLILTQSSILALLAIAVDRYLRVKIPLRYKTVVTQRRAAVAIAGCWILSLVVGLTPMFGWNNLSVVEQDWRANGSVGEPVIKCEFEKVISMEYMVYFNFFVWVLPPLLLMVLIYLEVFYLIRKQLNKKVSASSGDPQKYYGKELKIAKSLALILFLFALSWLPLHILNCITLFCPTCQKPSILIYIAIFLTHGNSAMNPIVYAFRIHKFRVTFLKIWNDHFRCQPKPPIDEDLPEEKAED

[7] = molecular target: Glutamate receptor ionotropic, kainate 1 (Rattus norvegicus, UniProt P22756)
Chain of Glutamate receptor ionotropic, kainate 1 (P22756 whole entry): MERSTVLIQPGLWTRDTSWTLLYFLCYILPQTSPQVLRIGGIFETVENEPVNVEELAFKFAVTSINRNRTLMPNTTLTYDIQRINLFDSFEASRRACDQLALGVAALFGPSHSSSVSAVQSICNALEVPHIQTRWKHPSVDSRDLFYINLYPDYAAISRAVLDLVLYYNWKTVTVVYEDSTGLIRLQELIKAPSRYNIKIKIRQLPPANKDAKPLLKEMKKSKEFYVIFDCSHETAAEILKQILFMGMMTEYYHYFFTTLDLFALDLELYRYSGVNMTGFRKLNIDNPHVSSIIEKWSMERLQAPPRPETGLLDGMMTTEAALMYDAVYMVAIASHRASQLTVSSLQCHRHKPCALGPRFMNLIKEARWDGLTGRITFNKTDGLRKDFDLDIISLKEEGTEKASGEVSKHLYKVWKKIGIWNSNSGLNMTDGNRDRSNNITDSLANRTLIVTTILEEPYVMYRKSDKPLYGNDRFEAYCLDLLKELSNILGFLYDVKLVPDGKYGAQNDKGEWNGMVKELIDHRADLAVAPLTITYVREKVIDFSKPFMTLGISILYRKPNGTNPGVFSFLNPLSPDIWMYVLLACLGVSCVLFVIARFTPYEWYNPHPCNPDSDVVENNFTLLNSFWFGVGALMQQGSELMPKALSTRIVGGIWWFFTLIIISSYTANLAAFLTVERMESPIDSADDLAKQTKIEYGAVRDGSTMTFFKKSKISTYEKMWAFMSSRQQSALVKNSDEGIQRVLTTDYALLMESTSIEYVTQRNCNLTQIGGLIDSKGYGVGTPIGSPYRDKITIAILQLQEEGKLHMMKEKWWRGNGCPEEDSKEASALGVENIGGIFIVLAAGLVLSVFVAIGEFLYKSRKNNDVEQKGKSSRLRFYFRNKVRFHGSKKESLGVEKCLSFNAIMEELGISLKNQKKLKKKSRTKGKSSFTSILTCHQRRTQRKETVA

[8] = molecular target: Gamma-aminobutyric acid type B receptor subunit 1 (UniProt Q9Z0U4)
[9] = molecular target: T5, Type-2 angiotensin II receptor (Rattus norvegicus, UniProt P35351)
T5 sequence (P35351 whole entry): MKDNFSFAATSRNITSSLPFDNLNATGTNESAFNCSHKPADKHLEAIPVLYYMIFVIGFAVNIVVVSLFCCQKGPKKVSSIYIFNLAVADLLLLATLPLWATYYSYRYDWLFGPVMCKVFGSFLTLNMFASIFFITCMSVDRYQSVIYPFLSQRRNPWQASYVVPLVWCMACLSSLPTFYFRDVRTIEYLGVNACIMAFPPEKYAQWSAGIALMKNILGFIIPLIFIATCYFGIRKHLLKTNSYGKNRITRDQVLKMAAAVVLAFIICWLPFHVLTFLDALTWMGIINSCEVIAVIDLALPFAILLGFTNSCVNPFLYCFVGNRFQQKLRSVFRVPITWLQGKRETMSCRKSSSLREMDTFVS

D(3) dopamine receptor = D(3) dopamine receptor (Bos taurus, UniProt F1N454)
Chain of D(3) dopamine receptor (F1N454 whole entry): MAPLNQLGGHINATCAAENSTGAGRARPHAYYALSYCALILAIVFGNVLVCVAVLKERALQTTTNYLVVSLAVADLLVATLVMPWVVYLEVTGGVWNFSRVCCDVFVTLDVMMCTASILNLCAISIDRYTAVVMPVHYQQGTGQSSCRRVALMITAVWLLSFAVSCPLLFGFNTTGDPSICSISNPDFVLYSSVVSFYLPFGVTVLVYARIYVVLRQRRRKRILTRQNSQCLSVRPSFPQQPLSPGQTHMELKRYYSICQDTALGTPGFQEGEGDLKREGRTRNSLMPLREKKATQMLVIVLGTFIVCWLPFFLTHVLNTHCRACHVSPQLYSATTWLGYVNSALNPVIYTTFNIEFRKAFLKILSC

[10] = molecular target: Sigma non-opioid intracellular receptor 1 (Mus musculus, UniProt O55242)
[11] = molecular target: Glutamate receptor ionotropic, NMDA 1 (Rattus norvegicus, UniProt P35439)
[12] = molecular target: Voltage-dependent L-type calcium channel subunit alpha-1C (Rattus norvegicus, UniProt P22002)
[13] = molecular target: Gamma-aminobutyric acid (GABA) B receptor 1 (Rattus norvegicus, UniProt Q6MFX8)
[14] = molecular target: Alpha-2C adrenergic receptor (Rattus norvegicus, UniProt P22086)
[15] = molecular target: 5-hydroxytryptamine receptor 2C (Sus scrofa, UniProt G7ZKZ7)
[16] = molecular target: Alpha-1B adrenergic receptor (Rattus norvegicus, UniProt P15823)
[17] = molecular target: 5-hydroxytryptamine 1D receptor (Bos taurus, UniProt Q8MI13)
Chain of 5-hydroxytryptamine 1D receptor (Q8MI13 whole entry): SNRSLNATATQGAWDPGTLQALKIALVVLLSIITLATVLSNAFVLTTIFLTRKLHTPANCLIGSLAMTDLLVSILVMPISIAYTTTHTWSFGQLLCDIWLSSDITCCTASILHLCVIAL

Histamine H1 receptor = Histamine H1 receptor (Cavia porcellus, UniProt P31389)
[18] = molecular target: Sodium channel protein type 10 subunit alpha (Rattus norvegicus, UniProt Q62968)
[19] = molecular target: Muscarinic acetylcholine receptor M2 (Rattus norvegicus, UniProt P10980)
[20] = molecular target: Sodium-dependent dopamine transporter (Rattus norvegicus, UniProt P23977)
[21] = molecular target: 5-hydroxytryptamine receptor 1A (Rattus norvegicus, UniProt P19327)
[22] = molecular target: 5-hydroxytryptamine receptor 2A (Rattus norvegicus, UniProt P14842)
[23] = molecular target: 5-hydroxytryptamine receptor 1B (Rattus norvegicus, UniProt P28564)
D(2) dopamine receptor = D(2) dopamine receptor (Rattus norvegicus, UniProt P61169)
[24] = molecular target: Gamma-aminobutyric acid receptor subunit alpha-1 (Rattus norvegicus, UniProt P62813)

Chain of Nischarin (Q4G017 whole entry): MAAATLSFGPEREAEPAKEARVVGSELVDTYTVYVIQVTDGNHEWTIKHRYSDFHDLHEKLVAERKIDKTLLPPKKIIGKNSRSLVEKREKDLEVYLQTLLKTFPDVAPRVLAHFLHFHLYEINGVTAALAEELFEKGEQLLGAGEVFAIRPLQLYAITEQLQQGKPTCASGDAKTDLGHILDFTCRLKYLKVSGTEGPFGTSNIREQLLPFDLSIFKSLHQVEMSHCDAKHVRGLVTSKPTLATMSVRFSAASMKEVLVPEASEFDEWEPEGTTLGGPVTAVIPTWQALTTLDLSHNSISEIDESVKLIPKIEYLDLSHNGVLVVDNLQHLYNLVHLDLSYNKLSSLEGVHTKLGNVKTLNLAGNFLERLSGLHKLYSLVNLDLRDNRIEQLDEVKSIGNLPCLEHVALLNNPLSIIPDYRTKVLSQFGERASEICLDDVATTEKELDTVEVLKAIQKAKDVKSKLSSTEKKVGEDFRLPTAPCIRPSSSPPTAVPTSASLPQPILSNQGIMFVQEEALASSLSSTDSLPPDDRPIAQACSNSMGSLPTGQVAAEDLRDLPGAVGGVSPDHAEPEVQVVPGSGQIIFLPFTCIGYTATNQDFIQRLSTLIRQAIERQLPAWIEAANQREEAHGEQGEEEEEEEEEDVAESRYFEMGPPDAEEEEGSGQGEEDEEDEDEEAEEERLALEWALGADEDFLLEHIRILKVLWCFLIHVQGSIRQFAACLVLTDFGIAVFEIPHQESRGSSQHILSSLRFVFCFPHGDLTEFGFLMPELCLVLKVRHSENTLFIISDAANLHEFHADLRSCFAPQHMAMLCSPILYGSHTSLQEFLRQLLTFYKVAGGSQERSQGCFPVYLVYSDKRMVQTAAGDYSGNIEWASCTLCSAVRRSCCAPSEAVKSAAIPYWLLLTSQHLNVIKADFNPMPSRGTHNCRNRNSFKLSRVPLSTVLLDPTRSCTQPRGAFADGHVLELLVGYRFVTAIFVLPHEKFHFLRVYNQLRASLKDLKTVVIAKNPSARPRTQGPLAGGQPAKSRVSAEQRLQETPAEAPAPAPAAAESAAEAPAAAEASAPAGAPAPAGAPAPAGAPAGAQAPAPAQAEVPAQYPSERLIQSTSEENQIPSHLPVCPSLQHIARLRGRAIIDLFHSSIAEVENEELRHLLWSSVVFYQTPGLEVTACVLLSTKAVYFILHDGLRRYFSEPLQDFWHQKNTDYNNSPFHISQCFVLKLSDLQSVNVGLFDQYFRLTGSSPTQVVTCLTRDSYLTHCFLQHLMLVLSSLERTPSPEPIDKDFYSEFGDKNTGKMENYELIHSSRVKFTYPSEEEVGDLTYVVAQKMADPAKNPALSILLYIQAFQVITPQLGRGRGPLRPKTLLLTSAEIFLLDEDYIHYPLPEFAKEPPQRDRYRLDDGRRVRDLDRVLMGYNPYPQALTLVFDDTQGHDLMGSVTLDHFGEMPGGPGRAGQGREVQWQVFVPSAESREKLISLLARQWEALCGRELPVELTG
Chain of 5-hydroxytryptamine receptor 4 (O70528 whole entry): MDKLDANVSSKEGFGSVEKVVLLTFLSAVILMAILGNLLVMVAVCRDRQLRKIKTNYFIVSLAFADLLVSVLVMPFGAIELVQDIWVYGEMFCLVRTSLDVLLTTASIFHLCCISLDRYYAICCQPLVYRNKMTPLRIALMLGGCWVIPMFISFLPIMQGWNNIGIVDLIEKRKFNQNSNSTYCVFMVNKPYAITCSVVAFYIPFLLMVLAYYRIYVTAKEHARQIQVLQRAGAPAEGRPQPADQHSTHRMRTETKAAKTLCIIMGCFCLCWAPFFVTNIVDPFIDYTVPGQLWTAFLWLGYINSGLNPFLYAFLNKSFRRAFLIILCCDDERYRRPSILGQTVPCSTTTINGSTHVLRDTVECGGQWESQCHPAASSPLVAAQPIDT

Row | SMILES | pKi (Nischarin) | pKi [1] | pKi [2] | pKi [3] | pKi [4] | pKi [5] | pKi (Adenosine receptor A2a) | pKi [6] | pKi (Glutamate receptor 3) | pKi (Adenosine receptor A1) | pKi [7] | pKi [8] | pKi [9] | pKi (D(3) dopamine receptor) | pKi [10] | pKi [11] | pKi [12] | other results
1 | O=C(CCCN1CCC(O)(c2ccc(Cl)cc2)CC1)c1ccc(F)cc1 [4-[4-(4-Chloro-phenyl)-4-hydroxy-piperidin-1-yl]-1-(4-fluoro-phenyl)-butan-1-one;propionate(HCl)] | < 5.00 | < 5.00 | < 5.00 | < 5.00 | < 5.00 | < 5.00 | < 5.00 | < 5.00 | < 5.00 | < 5.00 | < 5.00 | < 5.00 | < 5.00 |  |  |  |  | 
2 | CN1CCN(C2=c3ccccc3=Nc3ccc(Cl)cc3N2)CC1 [6-chloro-10-(4-methylpiperazin-1-yl)-2,9-diazatricyclo[9.4.0.0^{3,8}]pentadeca-1,3(8),4,6,10,12,14-heptaene] | < 5.00 | < 5.00 | < 5.00 |  | < 5.00 | < 5.00 | < 5.00 | < 5.00 | < 5.00 | < 5.00 | < 5.00 | < 5.00 | < 5.00 | 6.06 | 5.19 | < 5.00 and 5.30 | < 5.00 | 
3 | CCN1CCCC1CNC(=O)c1cc(S(=O)(=O)CC)c(N)cc1OC (centres undefined) [NSC_2159] | < 5.00 | < 5.00 | < 5.00 | < 5.00 | < 5.00 | < 5.00 | < 5.00 | < 5.00 | < 5.00 | < 5.00 | < 5.00 |  | < 5.00 | 8.54 | < 5.00 | < 5.00 | < 5.00 | pKi [13]: < 5.00; pKi [14]: 5.80; pKi [15]: < 5.00; pKi [16]: < 5.00; pKi [17]: < 5.00; pKi (Histamine H1 receptor): < 5.00; pKi [18]: < 5.00; pKi [19]: < 5.00; pKi [20]: < 5.00; pKi [21]: < 5.00; pKi [22]: 5.70; pKi [23]: < 5.00; pKi (D(2) dopamine receptor): 7.68; pKi [24]: < 5.00

Reference: BindingDB's records for PubMed 8996185 (SynthÉLabo Recherche, 1997)
